PubChem BioAssay AID1159565 (GlaxoSmithKline (GSK), 2015)
Activity calls are given as the source filed them. No rule for the calls is given here.

System: T. cruzi-infected H9C2 cardiomyocytes, high-content imaging
Test: intracellular T. cruzi amastigote inhibition, imaging, H9C2 host cardiomyocytes, host toxicity (AID 1159565);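 also: infected cells incubated 72 h after plating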
[1] = measured here: H9C2 host cell toxicity
[2] = measured here: amastigotes per cell

Structure (SMILES)	IC50	IC50 [1] [nM]	IC50 [2] [nM]
NCc1ccc2c(Cl)cc(Cl)c(O)c2n1	2000 nM	6300	1300
CCCN1CCN(Cc2ccc(S(=O)(=O)Nc3cccc(C)c3)cc2)CC1	790 nM	> 50000	630
CCCc1cc(N)nc(-c2cc(CCC)cc(N)n2)c1	630 nM	200	500
CCN(CC)S(=O)(=O)c1ccc(OC)c(NC(=O)c2ccc([N+](=O)[O-])s2)c1	160 nM	> 50000	130
O=c1ccc2ccc(F)c3c2n1C[C@H]3CN1CCC(NCc2cc3ccccc3o2)CC1	200 nM	32000	130
Nc1ncnc2c1ncn2[C@@H]1O[C@H](CO)C[C@H]1O	2000 nM	5000	1300
COc1ccccc1CNc1cc(C2CC2)nc(-c2nccn2C)n1	790 nM	630	1000
O=C(c1cccc(Nc2ncc(-c3ccc4c(c3)OCO4)cn2)c1)N1CCOCC1	1300 nM	6300	790
N#Cc1cc(-c2ccnc(Nc3cccc(CN4CCOCC4)c3)n2)ccc1NCCN	32000 nM	7900	16000
CCOc1cnn(C)c(=O)c1Nc1ccc(C(=O)NCc2ccc(F)cc2)cc1	100 nM	> 50000	130
O=C1CSC(c2cccnc2)N1c1ccc(Cl)cc1Cl (stereo unspecified)	250 nM	> 50000	160
CN(C)c1ncc(-c2cncn2CCOc2ccc(Cl)cc2)cn1	250 nM	> 50000	200
C[C@@H](Oc1cc(-n2cnc3ccc(C(O)CO)cc32)sc1C(N)=O)c1ccccc1C(F)(F)F (stereo partly specified)	20000 nM	630	16000
COc1ccc(C(=O)[C@H]2C[C@@H]2CN(Cc2ccccn2)Cc2ccccn2)cc1	1600 nM	25000	1000
CCOc1cc(NCCCN2CCN(C)CC2)c2ncccc2c1	1300 nM	32000	1000
CC(CNS(=O)(=O)c1ccc(OC(F)F)cc1)c1ccc(NC(=O)c2ccncc2)cc1 (stereo unspecified)	100 nM	> 50000	79
COc1ccc(-c2cnc(NC(=O)c3ccc(F)cc3)n2C)cc1	5000 nM	> 50000	2000
Cc1nn(-c2nc3ccccc3s2)c2c1C(c1ccc(OCC(N)=O)cc1)SCC(=O)N2 (stereo unspecified)	> 50000 nM (inactive)	> 50000	> 50000
CC(C)Oc1ccc(C(=O)Nc2ccc(N3CCOCC3)c(Cl)c2)cc1	1300 nM	> 50000	1300
CN1CCCN(C(=O)c2ccc(N3CCCC3)cc2Cl)CC1	1000 nM	> 50000	630
Cc1cc(C)n(-c2nc(NC(C)C)nc(NC(C)(C)C)n2)n1	1600 nM	200	500
CCCCn1c(=O)c2c(N)onc2n(CCCC)c1=O	32000 nM	25000	25000
CCOc1ccc(Nc2ccc(S(=O)(=O)N3CCN(C)CC3)cc2[N+](=O)[O-])cc1OCC	> 50000 nM (inactive)	> 50000	3200
CN(C(=O)Nc1ccc2c(c1)CCN(C1CCC1)CC2)c1ccc(C#N)cc1	4000 nM	> 50000	2000

Structure (SMILES)	IC50	IC50 [1] [nM]	IC50 [2] [nM]
O=C(Nc1nccs1)c1ccccc1Cn1cc([N+](=O)[O-])cn1	> 50000 nM (inactive)	> 50000	> 50000
Cc1nc(C(=O)Nc2ccc3c(c2)OCO3)nn1-c1ccc(Cl)cc1	1600 nM	> 50000	1000
COc1ccc(C2CC(c3ccccc3Cl)=NN2C(=O)CNC(=O)C2CCCC2)cc1 (stereo unspecified)	3200 nM	> 50000	2000
COc1ccc([N+](=O)[O-])cc1NC(=O)Nc1cccc(Cl)c1	10000 nM	> 50000	400
N#Cc1nc(C=Cc2ccccc2)oc1NCc1cccnc1	400 nM	16000	400
CN1CCN(c2nc(-c3ccc(Cl)cc3)c3c(N)n(C)nc3n2)CC1	1000 nM	25000	790
COc1ccc(-c2cnc(NC(=O)c3cc(-c4ccccn4)n[nH]3)n2C)cc1	5000 nM	> 50000	4000
COc1ccc2ncc(Cl)c(CCN3CC[C@@H](NCc4cc5c(cn4)OCS5)[C@H](O)C3)c2n1	79 nM	25000	63
COc1ccc2ncc(=O)n(CCN3CCC(NCc4ccc(-c5cccs5)cc4)CC3)c2n1	1600 nM	7900	160
CCOC(=O)c1noc(N)c1-c1ccccc1	> 50000 nM (inactive)	> 50000	> 50000
Fc1ccc(OC2CC(NCc3cccc4cn[nH]c34)C2)cc1C(F)(F)F (stereo unspecified)	200 nM	7900	160
Cn1nc([N+](=O)[O-])nc1Oc1ccc(C(=O)c2ccccc2)cc1	320 nM	> 50000	130
Cc1ccc2onc(Nc3ccnc(Nc4cccc(S(C)(=O)=O)c4)n3)c2c1	630 nM	5000	400
Cc1cnc(Nc2cc(Cc3ccccc3)nc(NC3CCC(O)CC3)n2)s1 (stereo unspecified)	130 nM	32	50
CC(C(=O)Nc1ccc(Br)cc1)N1CCN(c2ccc([N+](=O)[O-])cc2)CC1 (stereo unspecified)	2500 nM	> 50000	3200
Cc1cccnc1NC(=O)c1cccc(OCc2c(C)noc2C)c1	50000 nM	2500	40000
O=C(NCCc1ccccn1)C(c1cn[nH]c1)N1CCN(c2ccc(Cl)c(Cl)c2)CC1 (stereo unspecified)	160 nM	> 50000	130
CCCN(Cc1ccc(OC)c(OC)c1)Cc1cc(=O)c2c(C)cc(C)cc2[nH]1	2000 nM	> 50000	500
COc1ccc2nccc([C@H](O)CN3CC[C@H](NC(=O)c4ccc(Br)cc4)[C@@H](O)C3)c2n1	1600 nM	2000	160
CC1CCCN(S(=O)(=O)c2ccc(C(=O)Nc3nc(-c4ccccn4)cs3)cc2)C1 (stereo unspecified)	500 nM	3200	250
c1ccc(Nc2nc(-c3ccccn3)cc(N3CCOCC3)n2)cc1	> 50000 nM (inactive)	630	25000
O=C(CN(Cc1ccccn1)Cc1ccccn1)NCc1csc(-c2cccs2)n1	6300 nM	> 50000	2500
O=[N+]([O-])c1ccc(-c2nnn(-c3cccnc3)n2)o1	> 50000 nM (inactive)	6300	63
c1ccc2sc(Nc3nc4ncccc4[nH]3)nc2c1	1600 nM	1000	1300

Structure (SMILES)	IC50	IC50 [1] [nM]	IC50 [2] [nM]
Cc1cc(N2CCc3ccccc3C2)nc(Nc2ccc(S(=O)(=O)N3CCOCC3)cc2)n1	> 50000 nM (inactive)	> 50000	25000
O=C(CSc1ccc(F)cc1)N[C@@H](Cc1cnc[nH]1)C(=O)NCCc1ccccc1	500 nM	> 50000	500
Clc1cc(Br)ccc1OCCCCn1ccnc1	250 nM	25000	320
COc1ccnc2[nH]cc(-c3cc(C(=O)N[C@H](CO)c4ccccc4)co3)c12	20000 nM	320	7900
CC(C)Nc1nccc(-c2c(-c3ccc(F)cc3)ncn2C2CCOCC2)n1	320 nM	> 50000	200
CNC(=O)C1Cc2ccccc2N1C(=O)Cc1ccccc1 (stereo unspecified)	> 50000 nM (inactive)	> 50000	> 50000
O=C(c1ccccc1)N1CCC(C(=O)N2CCC(Oc3ccccc3Cl)CC2)CC1	32000 nM	> 50000	25000
CCN(CC)c1ncc(C(=O)c2ccc([N+](=O)[O-])o2)s1	13000 nM	5000	7900
CCC(CC)C(=O)Nc1cccc(C(=O)Nc2nnc(C3CCCCC3)s2)c1	25000 nM	> 50000	16000
Nc1nc(-c2ccccn2)nc(-n2nc(-c3ccccc3)cc2N)n1	2500 nM	2000	320
COc1ccc(CNc2cc(C3CC3)nc(-c3nccn3C)n2)cc1	790 nM	1000	630
COc1ccc(Nc2nc(-c3ccccn3)cs2)c(OC)c1	7900 nM	2000	5000
CC(C)Oc1cccc(N2CCC(C(=O)N3CCCN(C(C)C)CC3)CC2)c1	630 nM	> 50000	250
Cc1ccc(Nc2nc(C3CCCN3Cc3ccn[nH]3)cs2)nc1 (stereo unspecified)	2000 nM	10000	2000
OC1CCC(Nc2nccc(-c3sc(C4CCOCC4)nc3-c3ccc(F)c(F)c3)n2)CC1 (stereo unspecified)	320 nM	32000	200
O=S1N=C(NCCCN(Cc2ccc(F)cc2)c2ccccn2)C(NCc2ccncc2)=N1 (stereo unspecified)	50000 nM	> 50000	40000
N#Cc1cc(N2CCCC2=O)ccc1Sc1ccccc1CO	400 nM	> 50000	250
O=C(Nc1nc(-c2ccc(S(=O)(=O)N3CCOCC3)cc2)cs1)c1ccc([N+](=O)[O-])cc1	1600 nM	> 50000	500
OCC1CCCCN1c1cc(-c2ccccn2)nc(Nc2ccccc2)n1 (stereo unspecified)	4000 nM	500	2000
Fc1ccc(Nc2nc(-c3ccccn3)cs2)cc1	5000 nM	1000	5000
Cc1c(C(=O)NCCCCn2ccnc2)oc2c(C)cccc12	500 nM	> 50000	500
CCCNC(=O)Nc1cccc(-c2nc3ncccc3o2)c1	4000 nM	25000	3200
CN(Cc1ccc(F)cc1)c1ccc(OCC(=O)N2CCCCC2c2cccnc2)nn1 (stereo unspecified)	400 nM	> 50000	400
O=C(NCC1CCCCC1)c1cnns1	3200 nM	> 50000	2000
